Results from patent US20250109134A1 (Ascentage Pharma (Suzhou) Co., Ltd., priority 2022, published 2025).

Key:
Assay type in all cases: physicochemical
[1] = Stability study, content and related substances (TRS, total impurity content) by HPLC
Method: In the present invention, the HPLC (high performance liquid chromatography) test parameters are set as follows:
Then, the sample flasks were opened to air (sealed with aluminum foil punctured with small holes) and placed in constant temperature and humidity cabinets at high temperature (60° C.), at room temperature and high humidity ([…]), at RT/75% RH, and at 40° C./75% RH for 30 days, respectively, […]

[2] = XRPD characterization (crystallinity), summary evaluation; details: summary of forms
Excerpt: In the present invention, the XRPD test parameters are set as follows: […]

[3] = Stability study, solid form by XRPD after open storage at high temperature / high humidity; details: summary of forms
Method: In the present invention, the XRPD test parameters are set as follows:
Then, the sample flasks were opened to air (sealed with aluminum foil punctured with small holes) and placed in constant temperature and humidity cabinets at high temperature (60° C.), at room temperature and high humidity (RT/92.5% RH), at RT/75% RH, and at 40° C./75% RH for 30 days, respectively, and samples were taken at days 5, 10 and 30 for XRPD and HPLC detection.

[4] = Dynamic vapor sorption (DVS) hygroscopicity test; details: summary of forms
Excerpt: In the present invention, the DVS test parameters are set as follows: […]

With CC(C)N1Cc2cc(C(F)(F)F)ncc2-c2cnc(NCc3c(F)ccc4c3CCO4)n3cnc(c23)C1=O [Crystalline form B] the “TRS(%)” value ([1]; 40° C./75RH %-5 d, open storage) was 0.54%, the “TRS(%)” value ([1]; 40° C./75RH %- 10 d, open storage) was 0.46% and the “TRS(%)” value ([1]; 40° C./75RH %- 30 d, open storage) was 0.56%. The “TRS(%)” value ([1]; 60° C.-5 d, open storage) was 0.52%, the “TRS(%)” value ([1]; 60° C.-10 d, open storage) was 0.53% and the “TRS(%)” value ([1]; 60° C.-30 d, open storage) was 0.62%. For the same compound, the “TRS(%)” value ([1]; Initial, TRS = total impurity content, HPLC) was 0.89%, the “TRS(%)” value ([1]; RT/90RH %-5 d, open storage) was 0.55% and the “TRS(%)” value ([1]; RT/90RH %-10 d, open storage) was 0.56%. The “TRS(%)” value ([1]; RT/90RH %-30 d, open storage) was 0.58%, the “Evaluation results: crystallinity” value [2] was “high crystallinity” and the “Evaluation results: stability” value [3] was “Good stability”.
In the case of CC(C)N1Cc2cc(C(F)(F)F)ncc2-c2cnc(NCc3c(F)ccc4c3CCO4)n3cnc(c23)C1=O [Crystalline form G], the “Evaluation results: hygroscopicity” value [4] is reported as “slight hygroscopicity” and the “Evaluation results: crystallinity” value [2] is reported as “High crystallinity”.
